Patent US20240158370A1, “CK1 alpha AND DUAL CK1 alpha / GSPT1 DEGRADING COMPOUNDS” (Innovo Therapeutics, Inc., priority 2022, published 2024)

How the values were obtained:
CK1α = molecular target: T1, CK1α (Homo sapiens, UniProt P48729+Q96SW2); assay: HiBiT degradation assay, CK1α, Procedure A; type: cell-based; conditions: six hours
T1 construct: CSNK1A1-HiBit KI HEK293(LgBit) Cells; host or cells: HEK293(LgBit) knock-in cells
Procedure, shortened: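 Cells in DMEM+10% FBS at 1×10^6 cells/ml were added to pre-spotted compound (10-point dose response, 10 μM to 0.005 μM, 0.1% DMSO) and incubated 6 h at 37° C. Nano-Glo HiBiT lytic reagent was added and luminescence read. DC50 and Ymin came from 4-parameter curve fits.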

GSPT1 = GSPT1 (Homo sapiens, UniProt P15170+Q96SW2); assay: HiBiT degradation assay, GSPT1, Procedure B (Molt 4_hGSPT1_HiBIT cells); type: cell-based; set-up: Molt 4_hGSPT1_HiBIT N-terminus tagged cells were generated using CRISPR technology; endogenous in cells; host or cells: Molt 4 cells, CRISPR-edited; conditions: six hours
GSPT1, sequence (P15170 whole entry): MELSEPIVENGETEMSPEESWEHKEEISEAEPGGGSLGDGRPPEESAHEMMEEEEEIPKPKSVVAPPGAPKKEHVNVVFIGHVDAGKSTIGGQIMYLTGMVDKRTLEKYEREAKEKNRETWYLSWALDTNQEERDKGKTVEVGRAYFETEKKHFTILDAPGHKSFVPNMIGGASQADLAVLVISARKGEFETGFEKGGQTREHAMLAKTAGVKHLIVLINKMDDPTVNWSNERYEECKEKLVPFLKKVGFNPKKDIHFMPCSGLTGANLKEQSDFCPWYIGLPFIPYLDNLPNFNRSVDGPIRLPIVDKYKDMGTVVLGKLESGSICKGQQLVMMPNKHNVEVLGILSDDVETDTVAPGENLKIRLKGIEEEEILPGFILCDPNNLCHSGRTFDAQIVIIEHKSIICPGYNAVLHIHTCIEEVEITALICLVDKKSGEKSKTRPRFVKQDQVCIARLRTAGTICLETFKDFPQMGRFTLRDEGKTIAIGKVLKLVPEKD
GSPT1, sequence (Q96SW2 whole entry): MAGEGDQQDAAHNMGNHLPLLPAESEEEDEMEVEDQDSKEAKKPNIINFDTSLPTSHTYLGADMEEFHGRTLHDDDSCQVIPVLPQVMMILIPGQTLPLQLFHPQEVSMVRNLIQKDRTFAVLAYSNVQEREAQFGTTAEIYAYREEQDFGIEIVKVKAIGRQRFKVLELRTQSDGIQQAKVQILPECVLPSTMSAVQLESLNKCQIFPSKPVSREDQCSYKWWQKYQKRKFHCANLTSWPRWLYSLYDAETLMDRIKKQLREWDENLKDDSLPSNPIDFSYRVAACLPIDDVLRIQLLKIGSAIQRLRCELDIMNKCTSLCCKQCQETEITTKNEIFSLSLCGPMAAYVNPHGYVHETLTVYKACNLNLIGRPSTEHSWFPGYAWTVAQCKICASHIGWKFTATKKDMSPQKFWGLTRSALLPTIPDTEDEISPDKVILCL
GSPT1, sequence (Q16531 whole entry partner): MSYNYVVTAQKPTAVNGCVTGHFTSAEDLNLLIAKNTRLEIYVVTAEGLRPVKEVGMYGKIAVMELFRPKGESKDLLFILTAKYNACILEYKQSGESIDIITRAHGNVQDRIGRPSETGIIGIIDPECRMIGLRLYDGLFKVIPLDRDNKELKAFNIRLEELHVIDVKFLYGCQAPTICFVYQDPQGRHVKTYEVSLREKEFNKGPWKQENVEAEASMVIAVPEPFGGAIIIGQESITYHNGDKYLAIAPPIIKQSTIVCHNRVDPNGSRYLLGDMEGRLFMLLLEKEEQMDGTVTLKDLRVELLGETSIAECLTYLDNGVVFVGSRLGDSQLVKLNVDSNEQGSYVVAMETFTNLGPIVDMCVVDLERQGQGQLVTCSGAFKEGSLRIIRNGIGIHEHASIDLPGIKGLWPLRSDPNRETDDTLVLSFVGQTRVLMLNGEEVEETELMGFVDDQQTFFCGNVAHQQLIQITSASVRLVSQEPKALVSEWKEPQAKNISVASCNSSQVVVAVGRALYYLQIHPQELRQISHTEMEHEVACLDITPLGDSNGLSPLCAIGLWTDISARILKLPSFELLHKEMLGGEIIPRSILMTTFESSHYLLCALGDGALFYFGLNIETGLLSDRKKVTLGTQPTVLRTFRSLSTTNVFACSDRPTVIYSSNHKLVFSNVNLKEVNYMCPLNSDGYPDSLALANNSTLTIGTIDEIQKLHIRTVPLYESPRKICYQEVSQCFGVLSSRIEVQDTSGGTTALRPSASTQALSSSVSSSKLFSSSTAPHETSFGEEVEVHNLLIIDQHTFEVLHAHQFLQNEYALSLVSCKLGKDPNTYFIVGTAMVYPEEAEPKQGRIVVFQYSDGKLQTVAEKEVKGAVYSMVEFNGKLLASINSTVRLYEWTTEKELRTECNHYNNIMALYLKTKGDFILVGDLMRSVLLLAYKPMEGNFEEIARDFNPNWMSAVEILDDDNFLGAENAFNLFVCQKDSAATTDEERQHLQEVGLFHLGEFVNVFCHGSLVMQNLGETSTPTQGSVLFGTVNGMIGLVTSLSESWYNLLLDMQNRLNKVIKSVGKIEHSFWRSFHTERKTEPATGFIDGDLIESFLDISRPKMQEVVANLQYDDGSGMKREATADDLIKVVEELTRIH
Method: Molt 4_hGSPT1_HiBIT N-terminus tagged cells were generated using CRISPR technology. Cells were maintained in RPMI media (Thermo Fisher Scientific, Catalog #11875-093) containing 10% Fetal Bovine Serum (Thermo Fisher Scientific, Catalog #16140071) 1% Penicillin-Streptomycin (Thermo Fisher Scientific, Catalog #25200056). Cells were maintained at 37° C. in a 5% CO2 environment.
Compounds were spotted onto Cornin 384-Well, Cell Culture-Treated, Flat-Bottom, Low Flange Microplate (Fisher Scientific, Catalog #07-201-013) using a Tecan D300e digital dispenser. Ten-point dose response curves spanning from 10 μM to 0.005 μM with a 0.1% DMSO tolerance were used.
Cells were centrifuged for 5 minutes at 1200 RPMs. Cell culture media was aspirated off and cells were resuspended with RPMI+10% FBS. Cell density was determined using a Denovix CellDrop BF cell counter. Cell density was adjusted to 1×10^6 cells/ml. 40 μl of cells was added to compound treated tissue culture plates and incubated for six hours at 37° C. After six hours, cell culture plates were removed from tissue culture incubator and cooled to room temperature. 40 μl of Nano-GloHiBiT Lytic Detection Reagent (Promega, Catalog #N3040) was added to each well. Plates were placed on an orbital shaker (600 rpm) for 20 minutes. Luminescence was measured using an Envsion plate reader (Perkin Elmer). IC50 curves and Ymin were generated using a 4-parameter curve fit with GraphPad Prism software (Prism Corporation).
Results from the HiBiT assay (DC50 (nM) and Ymin (% remaining)) are shown below. All CK1α data was generated according to Procedure A. GSPT1 data for Examples 1-600, 603-620 and 703-705 was generated according to Procedure A. GSPT1 data for Examples 601, 621-702 and 706-735 was generated according to Procedure B.

T1 sequence (P48729 whole entry): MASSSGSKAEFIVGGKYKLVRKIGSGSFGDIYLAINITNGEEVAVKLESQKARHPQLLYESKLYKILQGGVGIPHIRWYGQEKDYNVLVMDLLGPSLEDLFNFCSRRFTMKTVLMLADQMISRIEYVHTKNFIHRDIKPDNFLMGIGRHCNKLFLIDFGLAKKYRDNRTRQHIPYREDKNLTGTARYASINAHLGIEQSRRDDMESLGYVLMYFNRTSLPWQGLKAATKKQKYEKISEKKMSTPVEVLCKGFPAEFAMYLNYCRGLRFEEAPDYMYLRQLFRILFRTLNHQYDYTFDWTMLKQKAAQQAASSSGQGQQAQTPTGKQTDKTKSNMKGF
T1 sequence (Q96SW2 whole entry): as the sequence (Q96SW2 whole entry) above
T1 sequence (Q16531 whole entry partner): as the sequence (Q16531 whole entry partner) above

SMILES	CK1α Ymin (CK1α)	DC50 (CK1α) [nM]	DC50 (GSPT1) [nM]	GSPT1 Ymin (GSPT1)
Cn1cc(-c2ccc3c(c2)CN(C2CCC(=O)NC2=O)C3=O)nc1-c1ccsc1 (centres unmarked) [Example 664]	E (E = >25-75% remaining)	< 25	≥ 25	E (E = >25-75% remaining)
Cn1cc(-c2ccc3c(c2)CN(C2CCC(=O)NC2=O)C3=O)nc1-c1ccc(-n2cccn2)cc1 (centres unmarked) [Example 665]	E (E = >25-75% remaining)	< 25	≥ 25	D (D = >10- 25% remaining)
Cn1cc(-c2ccc3c(c2)CN(C2CCC(=O)NC2=O)C3=O)nc1-c1ccc(N2CCOCC2)cc1 (centres unmarked) [Example 666]	E (E = >25-75% remaining)	< 25	≥ 25	F (F = >75-100% remaining)
Cn1cc(-c2ccc3c(c2)CN(C2CCC(=O)NC2=O)C3=O)nc1-c1ccc(Cl)c(C(F)(F)F)c1 (centres unmarked) [Example 667]	E (E = >25-75% remaining)	< 25	< 25	F (F = >75-100% remaining)
Cn1cc(-c2ccc3c(c2)CN(C2CCC(=O)NC2=O)C3=O)nc1-c1ccc(CN2CCOCC2)cc1 (centres unmarked) [Example 668]	E (E = >25-75% remaining)	< 25	≥ 25	F (F = >75-100% remaining)
Cn1cc(-c2ccc3c(c2)CN(C2CCC(=O)NC2=O)C3=O)nc1-c1cccc(C(N)=O)c1 (centres unmarked) [Example 669]	E (E = >25-75% remaining)	≥ 25	≥ 25	F (F = >75-100% remaining)
Cc1ccc(-c2nc(-c3ccc4c(c3)CN(C3CCC(=O)NC3=O)C4=O)cn2C)c(F)c1 (centres unmarked) [Example 670]	E (E = >25-75% remaining)	< 25	≥ 25	F (F = >75-100% remaining)
Cn1cc(-c2ccc3c(c2)CN(C2CCC(=O)NC2=O)C3=O)nc1-c1ccc2c(c1)CCCO2 (centres unmarked) [Example 671]	E (E = >25-75% remaining)	< 25	≥ 25	F (F = >75-100% remaining)
Cn1cc(-c2ccc3c(c2)CN(C2CCC(=O)NC2=O)C3=O)nc1-c1cccc2cnccc12 (centres unmarked) [Example 672]	E (E = >25-75% remaining)	< 25	< 25	F (F = >75-100% remaining)
COc1ccccc1-c1nc(-c2ccc3c(c2)CN(C2CCC(=O)NC2=O)C3=O)cn1C (centres unmarked) [Example 673]	E (E = >25-75% remaining)	< 25	< 25	F (F = >75-100% remaining)
Cc1ccc(N)cc1-c1nc(-c2ccc3c(c2)CN(C2CCC(=O)NC2=O)C3=O)cn1C (centres unmarked) [Example 674]	E (E = >25-75% remaining)	< 25	≥ 25	F (F = >75-100% remaining)
Cc1ccc(-c2nc(-c3ccc4c(c3)CN(C3CCC(=O)NC3=O)C4=O)cn2C)cc1F (centres unmarked) [Example 675]	E (E = >25-75% remaining)	< 25	< 25	F (F = >75-100% remaining)
Cn1cc(-c2ccc3c(c2)CN(C2CCC(=O)NC2=O)C3=O)nc1-c1cccc2ccccc12 (centres unmarked) [Example 676]	E (E = >25-75% remaining)	< 25	≥ 25	F (F = >75-100% remaining)
Cn1cc(-c2ccc3c(c2)CN(C2CCC(=O)NC2=O)C3=O)nc1-c1ccc(F)c(C#N)c1 (centres unmarked) [Example 677]	E (E = >25-75% remaining)	< 25	≥ 25	
Cn1cc(-c2ccc3c(c2)CN(C2CCC(=O)NC2=O)C3=O)nc1-c1ccc2c(c1)CCC(=O)N2 (centres unmarked) [Example 678]	E (E = >25-75% remaining)	≥ 25	< 25	F (F = >75-100% remaining)
Cn1cc(-c2ccc3c(c2)CN(C2CCC(=O)NC2=O)C3=O)nc1-c1nn(C)c2ccccc12 (centres unmarked) [Example 679]	D (D = >10- 25% remaining)	< 25	≥ 25	F (F = >75-100% remaining)
Cn1cc(-c2ccc3c(c2)CN(C2CCC(=O)NC2=O)C3=O)nc1-c1ccc2c(c1)OCO2 (centres unmarked) [Example 680]	C (C = 0-10% remaining)	< 25	≥ 25	E (E = >25-75% remaining)

SMILES	CK1α Ymin (CK1α)	DC50 (CK1α) [nM]	DC50 (GSPT1) [nM]	GSPT1 Ymin (GSPT1)
Cn1cc(-c2ccc3c(c2)CN(C2CCC(=O)NC2=O)C3=O)nc1-c1cccc(OCc2ccccc2)c1 (centres unmarked) [Example 681]	C (C = 0-10% remaining)	< 25	< 25	D (D = >10- 25% remaining)
Cn1cc2cc(-c3nc(-c4ccc5c(c4)CN(C4CCC(=O)NC4=O)C5=O)cn3C)ccc2n1 (centres unmarked) [Example 682]	C (C = 0-10% remaining)	< 25	< 25	F (F = >75-100% remaining)
COc1ccc(C#N)cc1-c1nc(-c2ccc3c(c2)CN(C2CCC(=O)NC2=O)C3=O)cn1C (centres unmarked) [Example 684]	E (E = >25-75% remaining)	< 25	< 25	F (F = >75-100% remaining)
Cn1cc(-c2ccc3c(c2)CN(C2CCC(=O)NC2=O)C3=O)nc1-c1ccnc2ccccc12 (centres unmarked) [Example 686]	C (C = 0-10% remaining)	< 25	< 25	F (F = >75-100% remaining)
CCCCc1ccc(-c2nc(-c3ccc4c(c3)CN(C3CCC(=O)NC3=O)C4=O)cn2C)s1 (centres unmarked) [Example 687]	D (D = >10- 25% remaining)	< 25	< 25	F (F = >75-100% remaining)
COc1ccc(Cl)c(-c2nc(-c3ccc4c(c3)CN(C3CCC(=O)NC3=O)C4=O)cn2C)c1 (centres unmarked) [Example 688]	C (C = 0-10% remaining)	< 25	< 25	F (F = >75-100% remaining)
Cn1cc(-c2ccc3c(c2)CN(C2CCC(=O)NC2=O)C3=O)nc1-c1cccc2c1CCC2 (centres unmarked) [Example 689]	C (C = 0-10% remaining)	< 25	≥ 25	F (F = >75-100% remaining)
Cn1ncc(-c2ccc3c(c2)CN(C2CCC(=O)NC2=O)C3=O)c1C1=CCNCC1 (centres unmarked) [Example 690]	E (E = >25-75% remaining)	≥ 25	≥ 25	F (F = >75-100% remaining)
Cn1ncc(-c2ccc3c(c2)CN(C2CCC(=O)NC2=O)C3=O)c1C1=CCCC1 (centres unmarked) [Example 691]	E (E = >25-75% remaining)	< 25	≥ 25	F (F = >75-100% remaining)
Cn1ncc(-c2ccc3c(c2)CN(C2CCC(=O)NC2=O)C3=O)c1C1=CCOCC1 (centres unmarked) [Example 693]	E (E = >25-75% remaining)	< 25	≥ 25	F (F = >75-100% remaining)
Cn1ncc(-c2ccc3c(c2)CN(C2CCC(=O)NC2=O)C3=O)c1C1CCOCC1 (centres unmarked) [Example 694]	E (E = >25-75% remaining)	≥ 25	≥ 25	F (F = >75-100% remaining)
Cn1ncc(-c2ccc3c(c2)CN(C2CCC(=O)NC2=O)C3=O)c1C1=COCCC1 (centres unmarked) [Example 695]	E (E = >25-75% remaining)	< 25	< 25	F (F = >75-100% remaining)
Cn1ncc(-c2ccc3c(c2)CN(C2CCC(=O)NC2=O)C3=O)c1C1=CCC(c2ccccc2)CC1 (centres unmarked) [Example 696]	E (E = >25-75% remaining)	< 25	≥ 25	F (F = >75-100% remaining)
Cn1ncc(-c2ccc3c(c2)CN(C2CCC(=O)NC2=O)C3=O)c1C1=CCCCCC1 (centres unmarked) [Example 697]	D (D = >10- 25% remaining)	< 25	≥ 25	E (E = >25-75% remaining)
Cn1ncc(-c2ccc3c(c2)CN(C2CCC(=O)NC2=O)C3=O)c1C1=CCC(F)(F)CC1 (centres unmarked) [Example 698]	F (F = >75-100% remaining)	< 25	≥ 25	F (F = >75-100% remaining)
Cn1ncc(-c2ccc3c(c2)CN(C2CCC(=O)NC2=O)C3=O)c1C1CCC(F)(F)CC1 (centres unmarked) [Example 699]	F (F = >75-100% remaining)	≥ 25	≥ 25	F (F = >75-100% remaining)
